Measurements from patent US10844002B2, “Lipids and lipid compositions for the delivery of active agents” (priority 2014, dated 2020).

Columns and labels:
[1] = Measurement of mRNA encapsulation in lipid nanoparticles (Quant-iT Ribogreen); format: physicochemical; conditions: LNP cationic lipid/DSPC/cholesterol/stealth lipid, N:P 4:1, leptin mRNA
Description: All equipment and disposable supplies are certified free of RNase activity by the manufacturer or rendered RNase free by use of the RNaseZap reagent (LifeTechnologies). mRNA is encapsulated at a cationic lipid amine to mRNA phosphate (N:P) molar ratio of 4:1. Lipids (cationic lipid, DSPC, cholesterol and lipidated PEG or stealth lipid) are dissolved in ethanol. The molar ratios are 40:10:38:2, respectively. The mixture is sonicated briefly, then gently agitated for 5 minutes and then maintained at 37° C. until use. mRNA is exchanged into citrate buffer pH 5.8-6.0 by use of Amicon Ultra-15 centrifugal concentrators, and the final concentration is adjusted to 0.5 mg/ml and held at 37° C. until use. An equal volume of lipids in ethanol, mRNA in citrate buffer, and citrate buffer alone are drawn into disposable syringes. Tubing leading from syringes containing lipids and mRNA are attached to the T junction, and tubing leading from the syringe containing citrate buffer alone is paired with the tubing exiting the T-junction over a collection vessel containing a stir bar on an active stir plate. Syringes are placed in a syringe pump set to expel contents at a flow rate of 1 ml per minute.
The pump is activated, and the collected mRNA in lipid nanoparticles is transferred to SnakeSkin dialysis tubing (10,000 MWCO, Thermo Scientific). Material is dialyzed against RNAse- and pyrogen-free 1× phosphate buffered saline overnight at 4° C.
Percent encapsulation of mRNA in lipid nanoparticles is determined using the Quant-iT Ribogreen RNA Assay kit (Life Technologies). The LNP-mRNA suspension is assayed in buffer (mRNA outside the particle), and buffer plus Triton X-100 detergent (total mRNA). The difference calculated is the mRNA inside the particle. Prepare a 1000 ng/mL stock from the RNA provided in the kit and use this to generate a standard curve (0 ng/ml, 15.63-1000 ng/ml) in TE and TE+0.75% Triton X-100. Prepare LNP-mRNA samples in TE buffer and TE buffer+0.75% Triton X-100 with appropriate dilution so that reading is in the range of standard curve (400-2,000 fold). In a 384-well plate (Costar non-treated #3573) add 0.04 ml of standard (in duplicate) or sample (in triplicate) per well. Dilute Ribogreen reagent 240-fold in TE buffer and add 0.06 ml per well. Mix contents of wells and measure fluorescence (excitation=480 nm, emission=520 nm). Subtract background values (no RNA) from standard and test sample values and determine the concentrations of RNA in the samples using the standard curves. Determine the percent encapsulation of the sample by dividing the difference in concentrations between sample+triton and sample in buffer alone by the sample+triton concentration.

RSV F protein = format: in vivo; conditions: Table 4; BALB/c mice, intramuscular, 1 ng vA375 replicon in LNP, days 0 and 21
[2] = Encapsulation efficiency of RNA replicons (Quant-iT RiboGreen); format: physicochemical; conditions: LNP 40% cationic lipid, 10% DSPC, 48% cholesterol, 2% PEG-DMG; RNA replicon
Description: Briefly, lipids were dissolved in ethanol (2m1), a RNA replicon was dissolved in buffer (2 ml, 100 mM sodium citrate, pH 6) and these were mixed with 2 ml of buffer followed by 1 hour of equilibration. The mixture was then dialized overnight against 1×PBS. The resulting product contained liposomes, with ˜70-95% encapsulation efficiency.
The percentage of encapsulated RNA and RNA concentration were determined by Quant-iT RiboGreen RNA reagent kit (Invitrogen), following manufacturer's instructions. The ribosomal RNA standard provided in the kit was used to generate a standard curve. LNPs were diluted 10× or 100× in 1× TE buffer (from kit) before addition of the dye. Separately, LNPs were diluted 10× or 100× in 1× TE buffer containing 0.5% Triton X before addition of the dye (to disrupt the LNPs and thus to assay total RNA). Thereafter an equal amount of dye was added to each solution and then ˜180 μL of each solution after dye addition was loaded in duplicate into a 96 well tissue culture plate. The fluorescence (Ex 485 nm, Em 528 nm) was read on a microplate reader. All LNP formulations were dosed in vivo based on the encapsulated amount of RNA.

[3] = Characterization of LNP formulations: Z average particle diameter and polydispersity index; format: physicochemical; conditions: LNP formulation; for Zav (nm): Z average particle diameter; for polydispersity: polydispersity index
Source text: The lipid nanoparticles have a size of about 1 to about 2,500 nm, about 1 to about 1,500 nm, about 1 to about 1,000 nm, in a sub-embodiment about 50 to about 600 nm, in a sub-embodiment about 50 to about 400 nm, in a sub-embodiment about 50 to about 250 nm, and in a sub-embodiment about 50 to about 150 nm. Unless indicated otherwise, all sizes referred to herein are the average sizes (diameters) of the fully formed nanoparticle, as measured by dynamic light scattering on a Malvern Zetasizer. The nanoparticle sample is diluted in phosphate buffered saline (PBS) so that the count rate is approximately 200-400 kcts. The data is presented as a weighted average of the intensity measure.

CCCCC/C=C\C/C=C\CCCCCCCCOc1cc(COC(=O)CCCN(C)C)c(OCCCCCCCC/C=C\C/C=C\CCCCC)cc1C [Example 16, 4-methyl-2,5-bis((9Z,12Z)-octadeca-9,12-dien-1-yloxy)benzyl 4-(dimethylamino)butanoate]
% encapsulation (mRNA Leptin) [1]: 85.1% | Log10(IgG titer), 1 ng RNA (RSV-F), 2 weeks post 2nd immunization (RSV F protein): 4.40 | Encapsulation efficiency (RNA %) [2]: 88.0% | Zav (nm) [3]: 115.5 nm | polydispersity [3]: 0.108

CCCCC/C=C\C/C=C\CCCCCCCCOc1ccc(COC(=O)CCCN(C)C)c(OCCCCCCCC/C=C\C/C=C\CCCCC)c1 [Example 19, 2,4-bis((9Z,12Z)-octadeca-9,12-dienyloxy)benzyl 4-(dimethylamino)butanoate]
% encapsulation (mRNA Leptin) [1]: 84.3% | Log10(IgG titer), 1 ng RNA (RSV-F), 2 weeks post 2nd immunization (RSV F protein): 4.68 | Encapsulation efficiency (RNA %) [2]: 79.9% | Zav (nm) [3]: 133.2 nm | polydispersity [3]: 0.074
